The source of these data is patent publication US9440957B2, “Compounds and compositions for modulating EGFR Activity” (Novartis AG, priority 2012, dated 2016).

The target of test [1] is HCC827 (Del E746-A750) (Homo sapiens, UniProt P00533, DEL746-750). Description: EGFR target modulation in HCC827 cell line (phospho-EGFR Y1173 ELISA). The test is classed as cell-based. In a few lines:
(§1)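 Readout: luminescent pY1173-EGFR sandwich ELISA on cell lysates. Treatment: compound, 3 h, 37 °C.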
In general terms: In an ELISA, binding on a coated surface is turned into a signal by an enzyme label.

The target of test [2] is H1975 (EGFR L858/T790M) (Homo sapiens, UniProt P00533, L858R/T790M). Put plainly: EGFR target modulation in H1975 cell line (phospho-EGFR Y1173 ELISA). The format is cell-based. In a few lines:
as §1

The target of test [3] is T1, EGFR(L858R/T790M) (Homo sapiens, UniProt P00533, L858R/T790M).
T1 construct: purchased from Carna (GST-a.a. 669-1210)
Put plainly: EGFR biochemical assay (HTRF), IC50 determinations. A digest of the protocol: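 Two formats were run: compound preincubated at room temperature with enzyme and biotin-TK peptide before ATP starts the reaction, or no preincubation with enzyme added last. Reactions ran 60 min at room temperature and were stopped with EDTA. Phosphopeptide was read by HTRF (PT66K/SAXL, 1 h).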
(In general: In TR-FRET formats the signal depends on donor and acceptor labels being close together.)

Test [4] concerns the target HaCaT (EGFR WT) (Homo sapiens, UniProt P00533). Description: EGFR target modulation in HaCaT (EGFR-WT) cell line (phospho-EGFR Y1173 ELISA). The test is classed as cell-based. The settings on record: value in parentheses. As for the experimental part: EGFR Target Modulation in HaCaT (EGFR-WT) Cell Line Tissue Culture. […] The serial diluted compounds were transferred to the plate containing cells by using a 50 nl Pin Head device (Perkin Elmer) and the cells were placed back in the incubator for 3 hours. […] Phospho-EGFR ([…]) ELISA. Solid white high-binding ELISA plates (Greiner #781074) were coated with 5 ug/ml anti-EGFR capture antibody (R&D Systems #AF231) overnight in 50 mM carbonate/bicarbonate pH 9.5 buffer. […] Wash steps were carried out with a Bio-Tek ELx405 SelectTM using 4 cycles of 100 ul TBS-T (20 mM Tris, 137 mM NaCl, 0.05% Tween-20) per well. […] Lysis was allowed to occur for 20 minutes on ice. A 25 ul aliquot was added to each well of the blocked ELISA plate and incubated overnight at 4° C. with gentle shaking. […] After washing, 1:2,000 anti-rabbit-HRP (Cell Signaling #7074) in 0.2% BSA/TBS-T was added and incubated for 1 hour at room temperature. Chemiluminescent detection was carried out with SuperSignal ELISA Pico substrate (ThermoScientific #37069). Signal was read on EnVision plate reader using built-in UltraLUM setting. Data Analysis. Control cells treated with EGF were set to 100% maximum response. […] With these parameters, the IC50's for each compound in each cell line was calculated using non-linear curve fitting analysis.

Test [5] addresses H3255 (EGFR L858R) (Homo sapiens, UniProt P00533, L858R). Description: EGFR target modulation in H3255 cell line (phospho-EGFR Y1173 ELISA). The format is cell-based. In a few lines: as §1
Test [6] deals with HEKn (EGFR WT) (Homo sapiens, UniProt P00533). Put plainly: EGFR target modulation in HEKn (EGFR-WT) cell line (phospho-EGFR Y1173 ELISA). The test is classed as cell-based. The settings on record: value outside parentheses. A digest of the protocol: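 Read-out was Y1173 phosphorylation, measured by chemiluminescent ELISA with anti-EGFR capture of lysates. HEKn keratinocytes (wild-type EGFR) were treated with compound for 3 h.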

[7] abbreviates: EGFR (L858R/T790M) with 90 min pre-incubation, read-out: IC50 (μM) Column B.
The mark [8] stands for this setting: EGFR (L858R/T790M) with no pre-incubation, read-out: IC50 (μM) Column A.

Molecules are shown by their SMILES. Like-named read-outs stand apart in the source and are kept apart here.

HCC827 (Del E746-A750), sequence (P00533 with tags, fused parts or gaps DEL746-750): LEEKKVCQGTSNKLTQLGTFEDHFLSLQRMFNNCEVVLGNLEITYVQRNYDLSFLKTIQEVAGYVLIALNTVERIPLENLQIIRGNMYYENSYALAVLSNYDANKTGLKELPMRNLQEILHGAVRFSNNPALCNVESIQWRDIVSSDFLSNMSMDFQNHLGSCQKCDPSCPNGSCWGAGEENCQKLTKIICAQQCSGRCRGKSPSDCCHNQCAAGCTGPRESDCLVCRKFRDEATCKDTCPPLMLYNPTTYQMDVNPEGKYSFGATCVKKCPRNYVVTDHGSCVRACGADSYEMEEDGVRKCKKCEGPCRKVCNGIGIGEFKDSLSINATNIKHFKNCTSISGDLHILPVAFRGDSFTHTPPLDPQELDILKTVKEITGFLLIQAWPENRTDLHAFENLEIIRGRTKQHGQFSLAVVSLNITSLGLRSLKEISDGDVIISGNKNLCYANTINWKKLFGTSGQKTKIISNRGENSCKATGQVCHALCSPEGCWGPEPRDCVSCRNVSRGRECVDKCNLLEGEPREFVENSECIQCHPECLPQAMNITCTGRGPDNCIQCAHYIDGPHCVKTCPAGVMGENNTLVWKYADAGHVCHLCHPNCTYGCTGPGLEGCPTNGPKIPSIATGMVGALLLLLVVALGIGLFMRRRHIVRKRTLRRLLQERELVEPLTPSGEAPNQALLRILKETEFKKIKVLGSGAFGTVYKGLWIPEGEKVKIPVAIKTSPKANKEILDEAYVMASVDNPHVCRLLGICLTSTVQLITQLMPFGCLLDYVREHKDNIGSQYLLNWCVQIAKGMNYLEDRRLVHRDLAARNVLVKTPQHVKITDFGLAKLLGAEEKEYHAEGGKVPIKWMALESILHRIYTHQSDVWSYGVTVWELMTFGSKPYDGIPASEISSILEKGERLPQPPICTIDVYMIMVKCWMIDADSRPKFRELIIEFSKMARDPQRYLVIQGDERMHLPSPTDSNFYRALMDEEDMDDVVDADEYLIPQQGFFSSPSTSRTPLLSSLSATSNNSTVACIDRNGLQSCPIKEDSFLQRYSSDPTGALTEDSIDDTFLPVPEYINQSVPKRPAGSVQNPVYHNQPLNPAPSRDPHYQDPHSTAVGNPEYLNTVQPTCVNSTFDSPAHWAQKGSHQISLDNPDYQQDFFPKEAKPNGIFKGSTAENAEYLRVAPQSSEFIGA
T1 sequence (P00533 669-1210 T790M/L858R): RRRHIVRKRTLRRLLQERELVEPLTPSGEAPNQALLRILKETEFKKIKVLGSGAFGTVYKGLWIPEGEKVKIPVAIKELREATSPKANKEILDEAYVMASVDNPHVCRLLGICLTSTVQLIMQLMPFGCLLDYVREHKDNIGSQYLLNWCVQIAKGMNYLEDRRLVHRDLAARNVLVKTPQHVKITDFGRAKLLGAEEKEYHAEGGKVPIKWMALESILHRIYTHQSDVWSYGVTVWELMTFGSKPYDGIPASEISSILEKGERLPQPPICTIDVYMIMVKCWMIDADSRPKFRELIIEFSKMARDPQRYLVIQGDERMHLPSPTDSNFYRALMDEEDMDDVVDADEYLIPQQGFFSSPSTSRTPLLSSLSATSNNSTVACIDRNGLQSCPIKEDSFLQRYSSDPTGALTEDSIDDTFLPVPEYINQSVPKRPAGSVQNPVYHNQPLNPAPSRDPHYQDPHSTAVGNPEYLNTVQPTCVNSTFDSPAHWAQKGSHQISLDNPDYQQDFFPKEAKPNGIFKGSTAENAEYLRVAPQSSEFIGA
H1975 (EGFR L858/T790M), sequence (P00533 25-1210 T790M/L858R): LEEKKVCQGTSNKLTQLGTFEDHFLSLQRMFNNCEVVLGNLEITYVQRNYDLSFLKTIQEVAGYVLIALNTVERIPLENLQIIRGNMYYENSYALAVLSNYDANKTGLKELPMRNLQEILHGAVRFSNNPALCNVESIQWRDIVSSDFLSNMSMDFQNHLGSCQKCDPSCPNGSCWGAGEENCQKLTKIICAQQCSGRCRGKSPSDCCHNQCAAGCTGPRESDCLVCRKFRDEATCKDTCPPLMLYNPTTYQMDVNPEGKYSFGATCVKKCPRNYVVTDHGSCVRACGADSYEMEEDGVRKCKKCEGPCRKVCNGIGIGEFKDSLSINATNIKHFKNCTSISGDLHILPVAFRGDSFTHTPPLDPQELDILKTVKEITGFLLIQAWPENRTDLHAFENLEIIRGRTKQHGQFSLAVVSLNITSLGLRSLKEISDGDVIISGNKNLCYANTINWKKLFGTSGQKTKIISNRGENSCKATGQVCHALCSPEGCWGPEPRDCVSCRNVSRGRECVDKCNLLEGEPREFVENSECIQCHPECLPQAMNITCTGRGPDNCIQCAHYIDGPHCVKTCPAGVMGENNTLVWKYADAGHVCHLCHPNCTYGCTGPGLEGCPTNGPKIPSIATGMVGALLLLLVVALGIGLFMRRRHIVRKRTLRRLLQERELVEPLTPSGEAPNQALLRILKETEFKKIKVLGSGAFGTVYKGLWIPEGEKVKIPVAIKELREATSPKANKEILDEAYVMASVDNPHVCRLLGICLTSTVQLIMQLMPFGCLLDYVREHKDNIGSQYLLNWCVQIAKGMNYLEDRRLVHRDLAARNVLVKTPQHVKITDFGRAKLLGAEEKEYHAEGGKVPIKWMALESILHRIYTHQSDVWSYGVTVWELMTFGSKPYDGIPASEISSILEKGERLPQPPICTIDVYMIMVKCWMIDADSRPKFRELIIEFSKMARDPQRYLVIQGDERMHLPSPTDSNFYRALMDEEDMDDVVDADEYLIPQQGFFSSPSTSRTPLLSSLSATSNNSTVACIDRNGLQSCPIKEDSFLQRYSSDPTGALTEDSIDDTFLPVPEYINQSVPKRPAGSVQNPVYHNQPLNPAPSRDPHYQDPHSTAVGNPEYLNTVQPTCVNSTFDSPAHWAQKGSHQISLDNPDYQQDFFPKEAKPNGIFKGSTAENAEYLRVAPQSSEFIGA
HaCaT (EGFR WT), sequence (P00533 25-1210): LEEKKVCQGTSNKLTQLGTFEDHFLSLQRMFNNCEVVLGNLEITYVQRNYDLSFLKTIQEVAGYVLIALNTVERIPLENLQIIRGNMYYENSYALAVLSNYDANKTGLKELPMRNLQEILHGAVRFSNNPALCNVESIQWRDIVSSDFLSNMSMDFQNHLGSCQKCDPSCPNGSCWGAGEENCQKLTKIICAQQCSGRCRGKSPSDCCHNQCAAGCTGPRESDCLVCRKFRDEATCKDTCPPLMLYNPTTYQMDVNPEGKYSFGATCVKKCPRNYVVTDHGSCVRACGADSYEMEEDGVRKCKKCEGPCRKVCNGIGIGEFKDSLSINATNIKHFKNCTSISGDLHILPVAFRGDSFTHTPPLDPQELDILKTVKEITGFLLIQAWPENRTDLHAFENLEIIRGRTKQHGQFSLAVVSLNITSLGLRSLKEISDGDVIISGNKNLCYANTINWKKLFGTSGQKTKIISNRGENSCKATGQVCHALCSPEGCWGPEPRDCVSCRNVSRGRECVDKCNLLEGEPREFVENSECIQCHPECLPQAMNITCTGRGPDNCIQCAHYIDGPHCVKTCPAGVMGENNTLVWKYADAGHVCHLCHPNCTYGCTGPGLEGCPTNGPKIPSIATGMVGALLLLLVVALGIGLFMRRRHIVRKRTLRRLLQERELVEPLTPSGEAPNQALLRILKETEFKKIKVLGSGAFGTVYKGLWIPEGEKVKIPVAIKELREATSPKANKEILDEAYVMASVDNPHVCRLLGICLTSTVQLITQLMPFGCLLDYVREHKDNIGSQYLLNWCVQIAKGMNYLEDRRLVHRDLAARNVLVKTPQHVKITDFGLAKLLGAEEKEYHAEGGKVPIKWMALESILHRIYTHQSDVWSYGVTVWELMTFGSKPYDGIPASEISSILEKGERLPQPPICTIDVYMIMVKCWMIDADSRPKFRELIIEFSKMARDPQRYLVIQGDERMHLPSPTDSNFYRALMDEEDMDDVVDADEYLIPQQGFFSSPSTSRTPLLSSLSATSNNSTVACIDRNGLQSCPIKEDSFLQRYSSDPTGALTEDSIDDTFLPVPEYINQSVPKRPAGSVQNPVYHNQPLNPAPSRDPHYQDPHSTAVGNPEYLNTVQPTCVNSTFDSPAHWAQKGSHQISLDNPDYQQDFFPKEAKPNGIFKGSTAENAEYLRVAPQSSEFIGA

As to `C=CC(=O)N1CCCC[C@@H](n2c(NC(=O)c3cc(C)nc(C)c3)nc3ccc(OCCN4CCCC4)c(Cl)c32)C1` [Example 15, (R)—N-(1-(1-acryloylazepan-3-yl)-7-chloro-6-(2-(pyrrolidin-1-yl)ethoxy)-1H-benzo[d]imidazol-2-yl)-2,6-dimethylisonicotinamide], the IC50 (usually the point on the concentration scale where inhibition reaches its midpoint) is 1 nM in test [1]; 1 nM in test [2]; below 0.001 µM in test [3] (setting [7]); 0.004 µM in test [3] (setting [8]); 139 nM in test [4]; 3 nM in test [5].

With `C=CC(=O)N1CCCC[C@@H](n2c(NC(=O)c3cc(C)nc(C)c3)nc3cc(CN4CCN(C)C(=O)C4)cc(C)c32)C1` [Example 17-180], the IC50 in test [1] was 1 nM; in test [2], 1 nM; in test [3] (setting [7]) it was below 0.001 µM; in test [3] (setting [8]) it was 0.003 µM; in test [4], 92 nM; in test [5] it was 1 nM.

With `Cc1cc(C(=O)Nc2nc3cccc(C(F)(F)F)c3n2[C@@H]2CCCCN(C(=O)/C=C/CN(C)C)C2)cc(C)n1` [Example 17-188], the IC50 in test [1] was found to be 10 nM; in test [2] it was 16 nM; in test [3] (setting [7]), 0.003 µM; in test [3] (setting [8]), 0.04 µM; in test [4], 870 nM; in test [5] it was 39 nM.

Consider `Cc1cc(C(=O)Nc2nc3cccc(Cl)c3n2[C@H]2CCCCN(C(=O)/C=C/CN(C)C)C2)cc(C)n1` [Example 17-197], for which the IC50 in test [2] was 935 nM; in test [3] (setting [7]), 0.117 µM; in test [3] (setting [8]) it was 1.67 µM; in test [4], above 10000 nM; in test [5], 2000 nM.

As for `C=CC(=O)N1CCCC[C@@H](n2c(NC(=O)c3cc(C)nc(C)c3)nc3cc(CN4CCN(C(C)=O)CC4)cc(C)c32)C1` [Example 17-181], the IC50 in test [1] is 1 nM; in test [2], 1 nM; in test [3] (setting [7]), below 0.001 µM; in test [3] (setting [8]), 0.003 µM; in test [4] it was 77 nM; in test [5], 1 nM.

Turning to `C=CC(=O)N1CCCC[C@@H](n2c(NC(=O)c3cc(C)nc(C)c3)nc3cc(CN4CC[C@H](F)C4)cc(C)c32)C1` [Example 17-158], the IC50 in test [6] is 82 nM; in test [2], below 1 nM; in test [3] (setting [7]), below 0.001 µM; in test [3] (setting [8]), 0.002 µM; in test [4] it was 67 nM; in test [5], 2 nM.

Take `CN(C)C/C=C/C(=O)N1CCCCC(n2c(NC(=O)c3ccnc(P(C)(C)=O)c3)nc3cccc(Cl)c32)C1` (single isomer, unassigned) [Example 21-10B]: the IC50 came to 421 nM in test [2]; 0.014 µM in test [3] (setting [7]); 0.222 µM in test [3] (setting [8]); 6090 nM in test [4]; 77 nM in test [5].

With `Cc1cc(C(=O)Nc2nc3cccc(Cl)c3n2C2CCCCN(C(=O)/C=C/CN(C)C)C2)cc(P(C)(C)=O)n1` (single isomer, unassigned) [Example 21-9B], the IC50 in test [2] was 314 nM; in test [3] (setting [7]), 0.024 µM; in test [3] (setting [8]), 0.894 µM; in test [4], above 10000 nM; in test [5], 312 nM.

As to `C=CC(=O)N1CCCC[C@@H](n2c(NC(=O)c3cc(C)nc(C)c3)nc3cc(CN4CC[C@@H](F)C4)cc(C)c32)C1` [Example 17-159], the IC50 was 70 nM in test [6]; below 1 nM in test [2]; below 0.001 µM in test [3] (setting [7]); 0.002 µM in test [3] (setting [8]); 84 nM in test [4]; 2 nM in test [5].

Consider `C=CC(=O)N1CCNCC(n2c(NC(=O)c3ccnc(C)c3)nc3cccc(Cl)c32)C1` (stereo not shown) [Example 13, N-(1-(1-acryloyl-1,4-diazepan-6-yl)-7-chloro-1H-benzo[d]imidazol-2-yl)-2-methylisonicotinamide], for which the IC50 in test [2] is 113 nM; in test [3] (setting [7]), 0.113 µM; in test [3] (setting [8]), 1.63 µM; in test [4], above 10000 nM; in test [5], 312 nM.

For `C=CC(=O)N1CCCC[C@@H](n2c(NC(=O)c3cc(C)nc(C)c3)nc3cc(CN4CC[C@H](OC)C4)ccc32)C1` [Example 17-175], the IC50 was 289 nM in test [6]; 2 nM in test [2]; below 0.001 µM in test [3] (setting [7]); 0.004 µM in test [3] (setting [8]); 522 nM in test [4]; 4 nM in test [5].

Take `C=CC(=O)N1CCN(C(=O)OC(C)(C)C)CC(n2c(NC(=O)c3ccnc(C)c3)nc3cccc(Cl)c32)C1` (stereo not shown) [Example 12, tert-butyl 4-acryloyl-6-(7-chloro-2-(2-methylisonicotinamido)-1H-benzo[d]imidazol-1-yl)-1,4-diazepane-1-carboxylate]: the IC50 is 50 nM in test [2]; 0.016 µM in test [3] (setting [7]); 0.271 µM in test [3] (setting [8]); above 10000 nM in test [4]; 111 nM in test [5].

As for `Cc1cc(C(=O)Nc2nc3cccc(Cl)c3n2C2CCCCN(C(=O)/C=C/CN(C)C)C2)cc(P(C)(C)=O)n1` (single isomer, unassigned) [Example 21-9A], the IC50 was above 10000 nM in test [2]; 3.7 µM in test [3] (setting [7]); 32.4 µM in test [3] (setting [8]); above 10000 nM in test [4]; 6580 nM in test [5].

With `C/C=C/C(=O)N1CCCC[C@@H](n2c(NC(=O)c3cc(C)nc(C)c3)nc3cc(CN4CC[C@H](OC)C4)ccc32)C1` [Example 17-174], the IC50 in test [6] is above 10000 nM; in test [2], 93 nM; in test [3] (setting [7]) it was 0.01 µM; in test [3] (setting [8]), 0.21 µM; in test [4] it was above 10000 nM; in test [5] it was 202 nM.

As for `Cc1cc(C(=O)Nc2nc3cccc(Cl)c3n2[C@@H]2CCCCN(C(=O)/C=C/CN(C)C)C2)cc(P(C)(C)=O)n1` [Example 17-182], the IC50 was 770 nM in test [2]; 0.022 µM in test [3] (setting [7]); 0.472 µM in test [3] (setting [8]); above 10000 nM in test [4]; 422 nM in test [5].

Consider `Cc1cc(C(=O)Nc2nc3cccc(Cl)c3n2[C@@H]2CCCCN(C(=O)C3=CCCN(C)C3)C2)ccn1` [Example 3-16], for which the concentration for half-maximal inhibition (IC50) in test [2] was 899 nM; in test [3] (setting [7]) it was 0.36 µM; in test [3] (setting [8]), 0.352 µM; in test [4] it was above 10000 nM; in test [5], 2530 nM.

As to `Cc1cc(C(=O)Nc2nc3cccc(Cl)c3n2[C@@H]2CCCCN(C(=O)/C=C/CNC(C)(C)C)C2)ccn1` [Example 17-191], the IC50 in test [2] was 2 nM; in test [3] (setting [7]) it was below 0.001 µM; in test [3] (setting [8]), 0.004 µM; in test [4], 59 nM; in test [5] it was 3 nM.

Take `Cc1cc(C(=O)Nc2nc3cccc(Cl)c3n2[C@@H]2CCCCN(C(=O)/C=C/CN(C)C(=O)OC(C)(C)C)C2)ccn1` [Example 17-184]: the IC50 in test [2] was 3740 nM; in test [3] (setting [7]), 5.84 µM; in test [3] (setting [8]) it was 16.1 µM; in test [4], above 10000 nM; in test [5], 4840 nM.

Regarding `Cc1cc(C(=O)Nc2nc3cccc(Cl)c3n2[C@@H]2CCCCN(C(=O)C3=CCN(C)CC3)C2)ccn1` [Example 3-17], the IC50 in test [2] is 3480 nM; in test [3] (setting [7]), 1.2 µM; in test [3] (setting [8]), 0.676 µM; in test [4], above 10000 nM; in test [5] it was 6400 nM.
